Assay results from patent publication US20040242896A1, “Azole compounds as anti-fungal agents” (priority 2001, published 2004).
pIC50: −log10 of the molar value. Converted amounts (≈) assume the structure as drawn. Where two headings read alike, the source gives them in different places.

How the values were obtained:
Candida albicans 1122 = test: MIC determination (NCCLS M27A), Candida albicans 1122; assay type: cell-based
Candida krusei 766.1 = test: MIC determination (NCCLS M27A), Candida krusei 766.1; assay type: cell-based
[1] = test system: Aspergillus fumigatus Si-I; test: MIC determination (NCCLS M38P), Aspergillus fumigatus Si-I; assay type: cell-based
[2] = test system: Cryptococcus neoformans I; test: MIC determination (NCCLS M27A), Cryptococcus neoformans I; assay type: cell-based
Candida krusei 6258 (QC) = test: MIC determination (NCCLS M27A), Candida krusei 6258 (QC); assay type: cell-based
Candida tropicalis 750 = test: MIC determination (NCCLS M27A), Candida tropicalis 750; assay type: cell-based
[3] = test system: Paecilomyces variotti 22319 QC); test: MIC determination (NCCLS M38P), Paecilomyces variotti 22319 (QC); assay type: cell-based
Candida albicans1162 = test: MIC determination (NCCLS M27A), Candida albicans 1162; assay type: cell-based
Candida albicans Y-01-19 = test: MIC determination (NCCLS M27A), Candida albicans Y-01-19; assay type: cell-based
Candida glabrata 90030 = test: MIC determination (NCCLS M27A), Candida glabrata 90030; assay type: cell-based
[4] = test system: Cryptococcus neoformans M 106; test: MIC determination (NCCLS M27A), Cryptococcus neoformans M 106; assay type: cell-based
[5] = test system: Candida parapsilosis 22019 (QC); test: MIC determination (NCCLS M27A), Candida parapsilosis 22019 (QC); assay type: cell-based
Histoplasma capsulatum = test: microbe, parasite or virus in culture; assay type: cell-based
[6] = test system: Aspergillus fumigatus 1008; test: MIC determination (NCCLS M38P), Aspergillus fumigatus 1008; assay type: cell-based
[7] = target: lanosterol 14α-de-methylase; conditions: the target enzyme in the fungus, background statement; cited from earlier work
[8] = test system: isolates of Aspergillus species; conditions: background statement; cited from earlier work
[9] = Candida krusei 766.1, RPMI 1640, MOPS pH 7
[10] = Aspergillus fumigatus Si-I, RPMI 1640, MOPS pH 7
[11] = Candida albicans1162, RPMI 1640, MOPS pH 7
[12] = Candida albicans Y-01-19, RPMI 1640, MOPS pH 7
[13] = Cryptococcus neoformans M 106, RPMI 1640, MOPS pH 7
[14] = Aspergillus fumigatus 1008, RPMI 1640, MOPS pH 7
[15] = RPMI 1640, MOPS pH 7, read-out: MIC
[16] = Pichia kudriavzevii, RPMI 1640, MOPS pH 7, read-out: MIC
[17] = Nakaseomyces glabratus, RPMI 1640, MOPS pH 7, read-out: MIC

SMILES	MIC (Candida albicans 1122; RPMI 1640, MOPS pH 7) [µg/mL]	MIC (Candida krusei 766.1; [9]) [µg/mL]	MIC [1, 10] [µg/mL]	MIC ([2]; RPMI 1640, MOPS pH 7) [µg/mL]	MIC (Candida krusei 6258 (QC); RPMI 1640, MOPS pH 7) [µg/mL]	MIC (Candida tropicalis 750; RPMI 1640, MOPS pH 7) [µg/mL]	MIC ([3]; RPMI 1640, MOPS pH 7) [µg/mL]	MIC (Candida albicans1162; [11])	MIC (Candida albicans Y-01-19; [12])	MIC (Candida glabrata 90030; RPMI 1640, MOPS pH 7) [µg/mL]	MIC [4, 13] [µg/mL]	MIC ([5]; RPMI 1640, MOPS pH 7) [µg/mL]	MIC (Histoplasma capsulatum; RPMI 1640, MOPS pH 7) [µg/mL]	MIC [6, 14] [µg/mL]	MIC (Candida albicans 1122; [15]) [µg/mL]	MIC [2, 15] [µg/mL]	MIC (Candida krusei 6258 (QC); [16]) [µg/mL]	MIC (Candida tropicalis 750; [15]) [µg/mL]	MIC [3, 15] [µg/mL]	MIC (Candida glabrata 90030; [17]) [µg/mL]	other results
C[C@@H]1[C@H](O)[C@@H](C)/C=C/C=C/C=C/C=C/C=C/C=C/C=C/[C@H](O[C@@H]2O[C@H](C)[C@@H](O)[C@H](N)[C@@H]2O)C[C@@H]2O[C@](O)(C[C@@H](O)C[C@@H](O)[C@H](O)CC[C@@H](O)C[C@@H](O)CC(=O)O[C@H]1C)C[C@H](O)[C@H]2C(=O)O [Amphotericin B]	0.125 (≈ 0.135 µM)	0.25 (≈ 0.271 µM)	0.125 (≈ 0.135 µM)	0.06 (≈ 0.0649 µM)	0.25 (≈ 0.271 µM)	0.125 (≈ 0.135 µM)	0.06 (≈ 0.0649 µM)	0.06 µg/mL (≈ 0.0649 µM)	0.125 µg/mL (≈ 0.135 µM)	0.125 (≈ 0.135 µM)	0.125 (≈ 0.135 µM)	0.25 (≈ 0.271 µM)	0.25 (≈ 0.271 µM)	0.125 (≈ 0.135 µM)							
C[C@@H](n1ncn(-c2ccc(OCc3ccccc3)cc2)c1=S)[C@](O)(Cn1cncn1)c1ccc(F)cc1F [Compound No. 2, 2-[(1R,2R)-2 (2,4-Difluorophenyl)-2-hydroxy-1-methyl-3-(1H-1,2,4-triazol-1-yl)propyl]-4-(4-benzyloxyphenyl)-3-(2H, 4H)-1,2,4-thiotriazolone]		0.125 (≈ 0.234 µM)	0.016 (≈ 0.0299 µM)	0.00025 (≈ 0.000468 µM)	0.125 (≈ 0.234 µM)	0.002 (≈ 0.00374 µM)	0.06 (≈ 0.112 µM)		0.03 µg/mL (≈ 0.0561 µM)	0.125 (≈ 0.234 µM)	0.00025 (≈ 0.000468 µM)	0.002 (≈ 0.00374 µM)	0.03 (≈ 0.0561 µM)	0.125 (≈ 0.234 µM)							
OC(Cn1cncn1)(Cn1cncn1)c1ccc(F)cc1F [Fluconazole]															0.5 (≈ 1.63 µM)	0.5 (≈ 1.63 µM)	32 (≈ 104 µM)	0.25 (≈ 0.816 µM)	2 (≈ 6.53 µM)	64 (≈ 209 µM)	MIC (Candida krusei 766.1; Pichia kudriavzevii, 766.1, pH 7): 128 µg/mL (≈ 418 µM); MIC ([1]; Aspergillus fumigatus, pH 7): > 128 µg/mL; pIC50 [7]: 5.32; MIC (Candida albicans1162; Candida, ALBICANS1162, pH 7): > 128 µg/mL; MIC (Candida albicans Y-01-19; Y0119, Candida albicans Y-01-19, RPMI 1640, MOPS pH 7, read-out: MIC): 8 µg/mL (≈ 26.1 µM); MIC ([4]; M106, Cryptococcus neoformans M 106, RPMI 1640, MOPS pH 7, read-out: MIC): 2 µg/mL (≈ 6.53 µM); minimum inhibitory concentration (MIC) values [8]: 400 µg/mL (≈ 1310 µM); MIC [5, 15]: 2 µg/mL (≈ 6.53 µM); MIC (Histoplasma capsulatum; pH 7): 2 µg/mL (≈ 6.53 µM); MIC ([6]; Aspergillus fumigatus, 1008, pH 7): > 128 µg/mL
CCC(C)n1ncn(-c2ccc(N3CCN(c4ccc(OCC5COC(Cn6cncn6)(c6ccc(Cl)cc6Cl)O5)cc4)CC3)cc2)c1=O (stereo not shown) [Itraconazole]															0.03 (≈ 0.0425 µM)	0.016 (≈ 0.0227 µM)	0.5 (≈ 0.709 µM)	0.03 (≈ 0.0425 µM)	0.03 (≈ 0.0425 µM)	2 (≈ 2.83 µM)	MIC (Candida krusei 766.1; Pichia kudriavzevii, Candida krusei 766.1, RPMI 1640, MOPS pH 7, read-out: MIC): 0.25 µg/mL (≈ 0.354 µM); MIC ([1]; Aspergillus fumigatus Si-I, RPMI 1640, MOPS pH 7, read-out: MIC): 0.25 µg/mL (≈ 0.354 µM); MIC (Candida albicans1162; Candida albicans1162, RPMI 1640, MOPS pH 7, read-out: MIC): 32 µg/mL (≈ 45.3 µM); MIC (Candida albicans Y-01-19; Candida albicans, Y0119, pH 7): 0.125 µg/mL (≈ 0.177 µM); MIC ([4]; Cryptococcus neoformans, M106, pH 7): 0.125 µg/mL (≈ 0.177 µM); MIC [5, 15]: 0.06 µg/mL (≈ 0.085 µM); MIC (Histoplasma capsulatum; pH 7): 0.25 µg/mL (≈ 0.354 µM); MIC ([6]; Aspergillus fumigatus 1008, RPMI 1640, MOPS pH 7, read-out: MIC): 0.25 µg/mL (≈ 0.354 µM)
C[C@@H](n1ncn(-c2ccc(OCc3ccc(Cl)cc3Cl)cc2)c1=S)[C@](O)(Cn1cncn1)c1ccc(F)cc1F [compound 1, 2-[(1R,2R)-2 (2,4-Difluorophenyl)-2-hydroxy-1-methyl-3-(1H-1,2,4-triazol-1-yl)propyl]-4-[4-(2,4-dichlorobenzyloxy)phenyl]-3-(2H, 4H)-1,2,4-thiotriazolone]	<0.125	0.5 (≈ 0.829 µM)	<0.125	<0.03	<0.125	<0.125	<0.125	≧64 μg/ml	≦0.125 μg/ml	32 (≈ 53 µM)	<0.03	<0.125	0.5 (≈ 0.829 µM)	<0.125							
